Assay results taken from patent US10131652B2, “Pyrimidinyloxy benzene derivatives as herbicides” (E. I. DU PONT DE NEMOURS AND COMPANY, priority 2014, dated 2018).
Read-outs that look alike come from different tables or passages of the source.

Tests used:
Assay in all cases: Test B pre-/postemergence plant response
Type in all cases: in vivo
[1] = system: giant foxtail (Setaria faberii); settings: for Plant response rating, Foxtail, Giant: 1000 g ai/ha; for pest or weed control at 125 g/ha: 125 g ai/ha
Excerpt: (§1) Seeds of plant species selected from bamyardgrass (Echinochloa crus-galli), kochia (Kochia scoparia), ragweed (common ragweed, Ambrosia elatior), Italian ryegrass (Lolium multiflorum), large (Lg) crabgrass (Digitaria sanguinalis), giant foxtail (Setaria faberii), momingglory (Ipomoea spp.), pigweed (Amaranthus retroflexus), velvetleaf (Abutilon theophrasti), wheat (Triticum aestivum), and corn (Zea mays) were planted into a blend of loam soil and sand and treated preemergence with a directed soil spray using test chemicals formulated in a non-phytotoxic solvent mixture which included a surfactant. At the same time, plants selected from these crop and weed species and also blackgrass (Alopecurus myosuroides), and galium (catchweed bedstraw, Galium aparine) were planted in pots containing the same blend of loam soil and sand and treated with postemergence applications of test chemicals formulated in the same manner. Plants ranged in height from 2 to 10 cm and were in the one- to two-leaf stage for the postemergence treatment. Treated plants and untreated controls were maintained in a greenhouse for approximately 10 days, after which time all treated plants were compared to untreated controls and visually evaluated for injury. Plant response ratings, summarized in Table B, are based on a 0 to 100 scale where 0 is no effect and 100 is complete control. A dash (-) response means no test result.

[2] = system: morningglory (Ipomoea spp.); settings: for Plant response rating, Morningglory: 1000 g ai/ha; for pest or weed control at 125 g/ha: 125 g ai/ha
Excerpt: as §1

[3] = system: wheat (Triticum aestivum); settings: for Plant response rating, Wheat: 1000 g ai/ha, 0 to 100 scale (0 no effect, 100 complete control); for plant injury at 125 g/ha: 125 g ai/ha
Excerpt: as §1

[4] = system: pigweed (Amaranthus retroflexus); settings: for Plant response rating, Pigweed: 1000 g ai/ha; for pest or weed control at 125 g/ha: 125 g ai/ha
Excerpt: as §1

[5] = system: velvetleaf (Abutilon theophrasti); settings: for Plant response rating, Velvetleaf: 1000 g ai/ha; for pest or weed control at 125 g/ha: 125 g ai/ha
Excerpt: as §1

[6] = system: large (Lg) crabgrass (Digitaria sanguinalis); settings: for Plant response rating, Crabgrass, Large: 1000 g ai/ha; for pest or weed control at 125 g/ha: 125 g ai/ha
Excerpt: as §1

[7] = system: barnyardgrass (Echinochloa crus-galli); settings: for Plant response rating, Barnyardgrass: 1000 g ai/ha; for pest or weed control at 125 g/ha: 125 g ai/ha
Excerpt: as §1

corn (Zea mays) = settings: for Plant response rating, Corn: 1000 g ai/ha; for Corn plant response rating (crop injury, 0 = no effect, 100 = complete kill) at 125 g/ha: 125 g ai/ha
Excerpt: as §1

[8] = Postemergence, 0 to 100 scale (0 no effect, 100 complete control)
[9] = Preemergence, 0 to 100 scale (0 no effect, 100 complete control)
[10] = Preemergence, 31 g ai/ha, 0 to 100 scale (0 no effect, 100 complete control)

SMILES: Clc1cnc(Oc2ccccc2-c2cnco2)nc1 [Compound 7]
- Plant response rating, Foxtail, Giant [1, 8]: 20
- Plant response rating, Foxtail, Giant [1, 9]: 20
- Plant response rating, Morningglory [2, 8]: 40
- Plant response rating, Morningglory [2, 9]: 0
- Plant response rating, Wheat ([3]; Postemergence): 10
- Plant response rating, Wheat ([3]; Preemergence): 0
- Plant response rating, Pigweed [4, 8]: 20
- Plant response rating, Pigweed [4, 9]: 40
- Plant response rating, Velvetleaf [5, 8]: 10
- Plant response rating, Velvetleaf [5, 9]: 10
- Plant response rating, Crabgrass, Large [6, 8]: 20
- Plant response rating, Crabgrass, Large [6, 9]: 40
- Plant response rating, Barnyardgrass [7, 8]: 10
- Plant response rating, Barnyardgrass [7, 9]: 10
- Plant response rating, Corn (corn (Zea mays); [8]): 10
- Plant response rating, Corn (corn (Zea mays); [9]): 0

SMILES: Clc1cnc(Oc2ccccc2-c2cscn2)nc1 [Compound 8]
- Plant response rating, Foxtail, Giant [1, 8]: 0
- Plant response rating, Foxtail, Giant [1, 9]: 60
- Plant response rating, Morningglory [2, 8]: 10
- Plant response rating, Morningglory [2, 9]: 0
- Plant response rating, Wheat ([3]; Postemergence): 0
- Plant response rating, Wheat ([3]; Preemergence): 0
- Plant response rating, Pigweed [4, 8]: 70
- Plant response rating, Pigweed [4, 9]: 100
- Plant response rating, Velvetleaf [5, 8]: 30
- Plant response rating, Velvetleaf [5, 9]: 30
- Plant response rating, Crabgrass, Large [6, 8]: 10
- Plant response rating, Crabgrass, Large [6, 9]: 80
- Plant response rating, Barnyardgrass [7, 8]: 0
- Plant response rating, Barnyardgrass [7, 9]: 30
- Plant response rating, Corn (corn (Zea mays); [8]): 0
- Plant response rating, Corn (corn (Zea mays); [9]): 0

SMILES: Clc1cnc(Oc2ccccc2-c2cncs2)nc1 [Compound 9]
- Plant response rating, Foxtail, Giant [1, 8]: 20
- Plant response rating, Foxtail, Giant [1, 9]: 60
- Plant response rating, Morningglory [2, 8]: 50
- Plant response rating, Morningglory [2, 9]: 0
- Plant response rating, Wheat ([3]; Postemergence): 10
- Plant response rating, Wheat ([3]; Preemergence): 0
- Plant response rating, Pigweed [4, 8]: 60
- Plant response rating, Pigweed [4, 9]: 90
- Plant response rating, Velvetleaf [5, 8]: 40
- Plant response rating, Velvetleaf [5, 9]: 10
- Plant response rating, Crabgrass, Large [6, 8]: 50
- Plant response rating, Crabgrass, Large [6, 9]: 70
- Plant response rating, Barnyardgrass [7, 8]: 10
- Plant response rating, Barnyardgrass [7, 9]: 20
- Plant response rating, Corn (corn (Zea mays); [8]): 10
- Plant response rating, Corn (corn (Zea mays); [9]): 0

SMILES: FC(F)(F)c1cnc(Oc2ccccc2-c2cnc(Br)s2)nc1 [Compound 15, 2-[2-(2-bromo-5-thiazolyl)phenoxy]-5-(trifluoromethyl)pyrimidine]
- Foxtail, Giant plant response rating [1, 10]: 0
- pest or weed control at 31 g/ha ([1]; Setaria faberi, post-emergence, 240 h, 31 g ai/ha, Postemergence, 0 to 100 scale, 0 no effect, 100 complete control, read-out: Plant response rating, Foxtail, Giant): 0%
- pest or weed control at 125 g/ha ([1]; Setaria faberi, post-emergence, 240 h, postemergence, 0 to 100 scale, 0 no effect, 100 complete control, read-out: Plant response rating, Foxtail, Giant): 0%
- pest or weed control at 125 g/ha ([1]; Setaria faberi, pre-emergence, 240 h, Preemergence, 0 to 100 scale where 0 is no effect and 100 is complete control, read-out: Plant response rating, Foxtail, Giant): 0%
- pest or weed control at 31 g/ha ([2]; Ipomoea, post-emergence, 240 h, 31 g ai/ha, Postemergence, 0 to 100 scale, 0 no effect, 100 complete control, read-out: Plant response rating, Morningglory): 0%
- pest or weed control at 125 g/ha ([2]; Ipomoea, post-emergence, 240 h, postemergence, 0 to 100 scale, 0 no effect, 100 complete control, read-out: Plant response rating, Morningglory): 10%
- pest or weed control at 125 g/ha ([2]; Ipomoea, pre-emergence, 240 h, Preemergence, 0 to 100 scale where 0 is no effect and 100 is complete control, read-out: Plant response rating, Morningglory): 0%
- Morningglory plant response rating [2, 10]: 0
- plant injury at 31 g/ha ([3]; Triticum aestivum, post-emergence, 240 h, 31 g ai/ha, Postemergence, 0 to 100 scale, 0 no effect, 100 complete control, read-out: Plant response rating, Wheat): 0%
- plant injury at 125 g/ha ([3]; Triticum aestivum, post-emergence, 240 h, postemergence, 0 to 100 scale, 0 no effect, 100 complete control, read-out: Plant response rating, Wheat): 0%
- plant injury at 125 g/ha ([3]; Triticum aestivum, pre-emergence, 240 h, Preemergence, 0 to 100 scale where 0 is no effect and 100 is complete control, read-out: Plant response rating, Wheat): 0%
- pest or weed control at 31 g/ha ([4]; Amaranthus retroflexus, post-emergence, 240 h, 31 g ai/ha, Postemergence, 0 to 100 scale, 0 no effect, 100 complete control, read-out: Plant response rating, Pigweed): 60%
- pest or weed control at 125 g/ha ([4]; Amaranthus retroflexus, post-emergence, 240 h, postemergence, 0 to 100 scale, 0 no effect, 100 complete control, read-out: Plant response rating, Pigweed): 70%
- pest or weed control at 125 g/ha ([4]; Amaranthus retroflexus, pre-emergence, 240 h, Preemergence, 0 to 100 scale where 0 is no effect and 100 is complete control, read-out: Plant response rating, Pigweed): 0%
- Pigweed plant response rating [4, 10]: 0
- pest or weed control at 31 g/ha ([5]; Abutilon theophrasti, post-emergence, 240 h, 31 g ai/ha, Postemergence, 0 to 100 scale, 0 no effect, 100 complete control, read-out: Plant response rating, Velvetleaf): 0%
- pest or weed control at 125 g/ha ([5]; Abutilon theophrasti, post-emergence, 240 h, postemergence, 0 to 100 scale, 0 no effect, 100 complete control, read-out: Plant response rating, Velvetleaf): 0%
- pest or weed control at 125 g/ha ([5]; Abutilon theophrasti, pre-emergence, 240 h, Preemergence, 0 to 100 scale where 0 is no effect and 100 is complete control, read-out: Plant response rating, Velvetleaf): 0%
- Velvetleaf plant response rating [5, 10]: 0
- pest or weed control at 31 g/ha ([6]; Digitaria sanguinalis, post-emergence, 240 h, 31 g ai/ha, Postemergence, 0 to 100 scale, 0 no effect, 100 complete control, read-out: Plant response rating, Crabgrass, Large): 0%
- pest or weed control at 125 g/ha ([6]; Digitaria sanguinalis, post-emergence, 240 h, postemergence, 0 to 100 scale, 0 no effect, 100 complete control, read-out: Plant response rating, Crabgrass, Large): 10%
- pest or weed control at 125 g/ha ([6]; Digitaria sanguinalis, pre-emergence, 240 h, Preemergence, 0 to 100 scale where 0 is no effect and 100 is complete control, read-out: Plant response rating, Crabgrass, Large): 0%
- Crabgrass, Large plant response rating [6, 10]: 0
- pest or weed control at 31 g/ha ([7]; Echinochloa crus-galli, post-emergence, 240 h, 31 g ai/ha, Postemergence, 0 to 100 scale, 0 no effect, 100 complete control, read-out: Plant response rating, Barnyardgrass): 0%
- pest or weed control at 125 g/ha ([7]; Echinochloa crus-galli, post-emergence, 240 h, postemergence, 0 to 100 scale, 0 no effect, 100 complete control, read-out: Plant response rating, Barnyardgrass): 0%
- pest or weed control at 125 g/ha ([7]; Echinochloa crus-galli, pre-emergence, 240 h, Preemergence, 0 to 100 scale where 0 is no effect and 100 is complete control, read-out: Plant response rating, Barnyardgrass): 0%
- Barnyardgrass plant response rating [7, 10]: 0
- Corn plant response rating (corn (Zea mays); [10]): 0
- Corn plant response rating (crop injury, 0 = no effect, 100 = complete kill) at 31 g/ha (corn (Zea mays); Zea mays, post-emergence, 240 h, 31 g ai/ha, Postemergence, 0 to 100 scale, 0 no effect, 100 complete control): 0%
- Corn plant response rating (crop injury, 0 = no effect, 100 = complete kill) at 125 g/ha (corn (Zea mays); Zea mays, post-emergence, 240 h, postemergence, 0 to 100 scale, 0 no effect, 100 complete control): 0%
- Corn plant response rating (crop injury, 0 = no effect, 100 = complete kill) at 125 g/ha (corn (Zea mays); Zea mays, pre-emergence, 240 h, Preemergence, 0 to 100 scale where 0 is no effect and 100 is complete control): 0%
